According to patent US10226509B2, “Lymphangiogenesis inhibitors for cancer and for graft survival” (TUFTS UNIVERSITY, priority 2014, dated 2019):
Where two headings read alike, the source gives them in different places.

Tests used:
Format in all cases: cell-based, human
[1] = tested on: Gal-8-induced LEC sprouting; assay: LEC sprouting assay: Gal-8-induced sprouting with inhibitors or knockdown
Protocol: LEC spheroids were generated by seeding primary LECs at passage 4 or 5 in each well of 384-well hanging-drop plates (3D Biomatrix) in complete EGM-2 MV medium containing 0.25% methyl cellulose according to the manufacturer's instructions (750 cells/well). After 18 hours, LEC spheroids were collected, resuspended in serum-free EBM-2 basal medium, and mixed with collagen solution (PureCol collagen, Advanced BioMatrix, 2.2 mg/ml in M199 medium, pH adjusted to 7.4 with NaHCO3 and NaOH). Aliquots of the LEC spheroid/collagen mixture (250 μl/well of 48-well plate) were incubated in the presence or absence of various test agents for 24 hr. At the end of the incubation period, spheroids were stained with Calcein AM (Invitrogen, 1 μg/mL, 37° C., and 30 min). Fluorescent images were acquired using the EVOS FL cell imaging system, pixels were inverted for better visualization and cumulative length of each sprout was calculated. Results were expressed as fold change compared to corresponding controls. […] Test agents used included thiodigalactoside (10 to 50 mM, Carbosynth), 3′-sialyl lactose (2 to 10 mM, Carbosynth), 6′-sialyl lactose (2 to 10 mM, Carbosynth), LY294002 (20 μM, Abeam), U0126 (20 μM, Abeam), PD0325901 (1 μM, Selleckchem), human VEGFR-3-Fc chimera (10 μg/ml, R&D), human VEGFR-2-Fc chimera (10 μg/ml, R&D), Avastin (10 μg/ml, bevacizumab, Genentech/Roche), human control IgG (10 μg/ml, Southern Biotech), anti-human podoplanin functional grade antibody (10 μg/ml, eBioscience), and rat IgG2a κ isotype control functional grade antibody (10 μg/ml, eBioscience).
To determine the role of these pathways on Gal-8-induced lymphangiogenesis, LEC spheroids were stimulated with Gal-8 (0.75 μM) in the presence or absence of PI3K inhibitor (LY294002, 20 μM) and two different MEK inhibitors (U0126, 20 μM; PD0325901, 1 μM). After overnight treatment with Gal-8, accumulated sprout lengths were quantified.

LEC spheroids = assay: LEC sprouting assay: stimulation by galectins alone; conditions: 24 hours
Protocol: (§1) LEC spheroids were generated by seeding primary LECs at passage 4 or 5 in each well of 384-well hanging-drop plates (3D Biomatrix) in complete EGM-2 MV medium containing 0.25% methyl cellulose according to the manufacturer's instructions (750 cells/well). After 18 hours, LEC spheroids were collected, resuspended in serum-free EBM-2 basal medium, and mixed with collagen solution (PureCol collagen, Advanced BioMatrix, 2.2 mg/ml in M199 medium, pH adjusted to 7.4 with NaHCO3 and NaOH). Aliquots of the LEC spheroid/collagen mixture (250 μl/well of 48-well plate) were incubated in the presence or absence of various test agents for 24 hr. At the end of the incubation period, spheroids were stained with Calcein AM (Invitrogen, 1 μg/mL, 37° C., and 30 min). Fluorescent images were acquired using the EVOS FL cell imaging system, pixels were inverted for better visualization and cumulative length of each sprout was calculated. Results were expressed as fold change compared to corresponding controls. It was observed that sprout lengths vary from passages to passages. Test agents used included thiodigalactoside (10 to 50 mM, Carbosynth), 3′-sialyl lactose (2 to 10 mM, Carbosynth), 6′-sialyl lactose (2 to 10 mM, Carbosynth), LY294002 (20 μM, Abeam), U0126 (20 μM, Abeam), PD0325901 (1 μM, Selleckchem), human VEGFR-3-Fc chimera (10 μg/ml, R&D), human VEGFR-2-Fc chimera (10 μg/ml, R&D), Avastin (10 μg/ml, bevacizumab, Genentech/Roche), human control IgG (10 μg/ml, Southern Biotech), anti-human podoplanin functional grade antibody (10 μg/ml, eBioscience), and rat IgG2a κ isotype control functional grade antibody (10 μg/ml, eBioscience).
To assess the effect of galectins on LEC sprouting, LEC spheroids were embedded in a collagen matrix and incubated with media containing various test agents. After 24 hours, the cumulative length of the sprouts for each spheroid was quantified by ImageJ. […] Multiple approaches were used to determine whether the stimulatory effect of Gal-8 on LEC sprouting was carbohydrate-dependent.

[2] = tested on: VEGF-C-induced LEC sprouting; assay: LEC sprouting assay: VEGF-C-induced sprouting; conditions: VEGF-C 50 ng/ml, 24 h
Protocol: as §1
In this assay, the LEC spheroids were treated with VEGF-C (50 ng/ml) in the presence or absence of 0.75 μM of Gal-8 for 24 hours, and then accumulated sprout lengths were quantified. […] Synergistic effect of Gal-8 on VEGF-C-induced LEC sprouting was dose-dependent. […] At concentrations >0.5 μM Gal-8, there was no further increase in the degree of VEGF-C-induced lymphangiogenesis (FIG. 4C).
To further characterize the role of carbohydrate-mediated recognition in VEGF-C-induced lymphangiogenesis, LEC spheroids were stimulated with VEGF-C (50 ng/ml) in the presence or absence of three different galectin inhibitors. […] Therefore, the data establishes the critical role of Gal-8-mediated carbohydrate-mediated recognition in VEGF-C-induced lymphangiogenesis.

[3] = Gal-8 0.75 μM, 24 h, TDG 20 mM, LY294002 20 μM, U0126 20 μM, PD0325901 1 μM, Avastin 10 μg/ml, Obtustatin 4 μM, antibodies 20 μg/ml, siRNA-transfected LECs

## O=C(NOC[C@H](O)CO)c1ccc(F)c(F)c1Nc1ccc(I)cc1F [PD0325901]
[1]; [3]
  effect on Gal-8-induced LEC sprouting (in words): markedly inhibited

## Gal-8Q47A: Gal-8 mutant which has lost its ability to bind to α2,3-sialylated glycans
LEC spheroids
  promotion of LEC sprouting by the agent alone (in words): not promote lymphangiogenesis

## CC(=O)N[C@H]1[C@H]([C@H](O)[C@H](O)CO)O[C@@](O[C@H]2[C@@H](O)[C@@H](CO)O[C@@H](O[C@H]3[C@H](O)[C@@H](O)C(O)O[C@@H]3CO)[C@@H]2O)(C(=O)O)C[C@@H]1O (stereo partly shown) [3′-SL, 3′-sialyllactose]
[2]
  effect on VEGF-C-induced LEC sprouting (in words): inhibited
[1]; at 2 mM concentration
  inhibition of Gal-8-induced LEC sprouting: 95%
[1]; galectin-8 at 0.75 μM
  nH of inhibition of galectin-8-mediated LEC sprouting: 3.38
[1]; galectin-8 at 0.75 μM, read-out: IC50 of the inhibitory effect on galectin-8-mediated LEC sprouting
  IC50: 1.25 mM
[1]; galectin-8 at 0.75 μM, read-out: Ki (Ki=IC50/(1+[A]/EC50))
  Ki: 1.67 mM

## CC(=O)N[C@H]1[C@H]([C@H](O)[C@H](O)CO)O[C@@](OC[C@H]2O[C@@H](O[C@H]3[C@H](O)[C@@H](O)[C@H](O)O[C@@H]3CO)[C@H](O)[C@@H](O)[C@H]2O)(C(=O)O)C[C@@H]1O [6′-SL, 6′-sialyl lactose]
[1]; [3]
  effect on Gal-8-induced LEC sprouting (in words): had no effect

## Obtustatin: a blocking peptide against integrin α1β1 (CTTGPCCRQCKLKPAGTTCWKTSLTSHYCTGKSCDCPLYPG) [reference compound]
[2]
  effect on VEGF-C-induced LEC sprouting (in words): inhibited
[1]; [3]
  effect on Gal-8-induced LEC sprouting (in words): inhibited

## N#CC(=C(/N)Sc1ccccc1N)/C(C#N)=C(\N)Sc1ccccc1N [U0126]
[1]
  effect on Gal-8-induced LEC sprouting (in words): markedly inhibited

B1: VEGFR-3-Fc: human VEGFR-3-Fc chimera (protein)
chain: YSMTPPTLNITEESHVIDTGDSLSISCRGQHPLEWAWPGAQEAPATGDKDSEDTGVVRDCEGTDARPYCKVLLLHEVHANDTGSYVCYYKYIKARIEGTTAASSYVFVRDFEQPFINKPDTLLVNRKDAMWVPCLVSIPGLNVTLRSQSSVLWPDGQEVVWDDRRGMLVSTPLLHDALYLQCETTWGDQDFLSNPFLVHITGNELYDIQLLPRKSLELLVGEKLVLNCTVWAEFNSGVTFDWDYPGKQAERGKWVPERRSQQTHTELSSILTIHNVSQHDLGSYVCKANNGIQRFRESTEVIVHENPFISVEWLKGPILEATAGDELVKLPVKLAAYPPPEFQWYKDGKALSGRHSPHALVLKEVTEASTGTYTLALWNSAAGLRRNISLELVVNVPPQIHEKEASSPSIYSRHSRQALTCTAYGVPLPLSIQWHWRPWTPCKMFAQRSLRRRQQQDLMPQCRDWRAVTTQDAVNPIESLDTWTEFVEGKNKTVSKLVIQNANVSAMYKCVVSNKVGQDERLIYFYVTTIPDGFTIESKPSEELLEGQPVLLSCQADSYKYEHLRWYRLNLSTLHDAHGNPLLLDCKNVHLFATPLAASLEEVAPGARHATLSLSIPRVAPEHEGHYVCEVQDRRSHDKHCHKKYLSVQALEAPRLTQNLTDLLVNVSDSLEMQCLVAGAHAPSIVWYKDERLLEEKSGVDLADSNQKLSIQRVREEDAGRYLCSVCNAKGCVNSSASVAVEGSEDKGSMEI
modifications: left off: a dimerising Fc or GST
notes: human VEGFR-3-Fc chimera
[2]
  effect on VEGF-C-induced LEC sprouting (in words): inhibited
[1]; Gal-8 0.75 μM, 10 μg/ml, 24 hours
  % inhibition of Gal-8-induced LEC sprouting: 37%
